This note sets out measurements from ChEMBL document CHEMBL3621202, “Suppression of Hepatocellular Carcinoma by Inhibition of Overexpressed Ornithine Aminotransferase” (ACS Med Chem Lett, 2015).

A short description of assay [1]: Antiproliferative activity against human Hep3B cells after 48 hrs by [3H]-thymidine incorporation assay. It is filed as functional, Hep 3B2.
Assay [2] in a line: Antiproliferative activity against […] cells after 48 hrs by [3H]-thymidine incorporation assay. The class given is functional.
Assay [3] relates to Hep 3B2. Put plainly: Effect AFP secretion in human Hep3B cells by ELISA. It is filed as functional, cell-based.
For the next assay, the system named is Hepa1-6. Nature of the assay: Effect AFP secretion in […] cells by ELISA. The class given is functional, cell-based.
Assay [4] relates to HepG2. Nature of the assay: Effect AFP secretion in human HepG2 cells by ELISA. The class given is functional, cell-based.
The test system of assay [5] is Mus musculus. Nature of the assay: Reduction in AFP secretion in Hep3B cells xenografted Balb/C mouse serum at 500 ug/kg, ip administered as single dose by ELISA. It is filed as functional, organism-based. As to conditions: Hep 3B2.
Assay [6] deals with Aspartate aminotransferase, cytoplasmic (Homo sapiens) (UniProt P17174). Nature of the assay: Inhibition of aspartate aminotransferase (unknown origin) at 4 mM using 5.55 mM L-aspartate as substrate.
The next assay is filed under the species Homo sapiens. Nature of the assay: Inhibition of alanine aminotransferase (unknown origin) at 4 mM using 5.55 mM L-alanine as substrate.
The test system of assay [7] is Hep 3B2. Nature of the assay: Decrease in AFP secretion in human Hep3B cells at 50 ug/ml by ELISA. It is filed as functional, cell-based.
Assay [8] relates to Mus musculus. Nature of the assay: Reduction in AFP secretion in Hep3B cells xenografted Balb/C mouse serum at 0.1 mg/kg, po administered 3 weeks after xenograft measured 14 days after treatment by ELISA (reference value: 29155 pg/ml). The class given is functional, Hep 3B2.
Assay [9] relates to Mus musculus. Put plainly: Reduction in AFP secretion in Hep3B cells xenografted Balb/C mouse serum at 1 mg/kg, po administered 3 weeks after xenograft measured 14 days after treatment by ELISA (reference value: 29155 pg/ml). The class given is functional, Hep 3B2.
Assay [10] deals with Mus musculus. Nature of the assay: Reduction in AFP secretion in Hep3B cells xenografted Balb/C mouse serum at 0.1 mg/kg, po administered 3 weeks after xenograft measured 21 days after treatment by ELISA. It is filed as functional, organism-based. Conditions: Hep 3B2.
For assay [11], the system named is Mus musculus. Nature of the assay: Reduction in AFP secretion in Hep3B cells xenografted Balb/C mouse serum at 1 mg/kg, po administered 3 weeks after xenograft measured 21 days after treatment by ELISA. The class given is functional, organism-based. As to conditions: Hep 3B2.
Assay [12] can be described thus: Antitumor activity against human Hep3B cells xenografted in Balb/C mouse assessed as tumor size at 0.1 mg/kg, po administered 3 weeks after xenograft measured 28 days after treatment (reference value: 24.2). The class given is functional, Hep 3B2.
Assay [13] is described as follows: Antitumor activity against human Hep3B cells xenografted in Balb/C mouse assessed as tumor size at 1 mg/kg, po administered 3 weeks after xenograft measured 28 days after treatment (reference value: 24.2). The class given is functional, Hep 3B2.
Assay [14] deals with HepG2. Put plainly: Decrease in AFP secretion in human HepG2 cells at 50 ug/ml by ELISA. It is filed as functional, cell-based.
In assay [15] the target is T1, Ornithine aminotransferase, mitochondrial (Homo sapiens, UniProt P04181).
T1 sequence (P04181 whole entry): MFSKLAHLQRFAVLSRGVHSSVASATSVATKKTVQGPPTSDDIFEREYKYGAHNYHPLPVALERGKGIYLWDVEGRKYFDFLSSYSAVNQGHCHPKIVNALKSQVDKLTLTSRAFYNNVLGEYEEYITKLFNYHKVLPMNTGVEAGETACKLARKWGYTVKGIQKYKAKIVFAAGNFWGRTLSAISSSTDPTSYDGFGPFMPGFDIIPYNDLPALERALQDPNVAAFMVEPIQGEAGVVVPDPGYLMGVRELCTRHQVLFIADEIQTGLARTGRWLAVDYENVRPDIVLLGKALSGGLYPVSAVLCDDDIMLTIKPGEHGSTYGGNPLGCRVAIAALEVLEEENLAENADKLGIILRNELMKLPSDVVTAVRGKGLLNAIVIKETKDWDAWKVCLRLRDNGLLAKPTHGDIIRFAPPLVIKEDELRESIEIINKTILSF
Put plainly: Inhibition of human recombinant OAT using 1 mM alpha-ketoglutarate as substrate.

The source made the active and inactive calls. The rule behind the calls is not given here.

Sequence of Aspartate aminotransferase, cytoplasmic (Homo sapiens) (P17174 whole entry): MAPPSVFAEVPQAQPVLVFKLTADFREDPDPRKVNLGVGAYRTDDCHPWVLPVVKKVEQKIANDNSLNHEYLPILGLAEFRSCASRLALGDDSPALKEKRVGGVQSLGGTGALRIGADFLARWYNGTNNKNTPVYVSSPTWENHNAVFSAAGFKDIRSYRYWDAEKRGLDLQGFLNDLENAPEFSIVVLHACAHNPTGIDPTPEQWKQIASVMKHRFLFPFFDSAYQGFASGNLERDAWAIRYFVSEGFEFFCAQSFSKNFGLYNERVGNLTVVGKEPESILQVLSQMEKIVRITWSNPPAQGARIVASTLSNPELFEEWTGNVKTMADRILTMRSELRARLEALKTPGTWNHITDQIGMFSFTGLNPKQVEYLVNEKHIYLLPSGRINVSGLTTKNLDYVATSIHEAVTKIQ

On to `N[C@H]1C=C(C(=O)O)CCC1` [GABACULINE], for which the “inhibition (INH)” value in assay [1] and in assay [2] was 43% in each case. Further, the result in the assay on Hep 3B2 [3], in the assay with Hepa1-6 and with HepG2 [4] was inactive. Moreover, in the assay on Mus musculus [5], the inhibition entry was “Active”.

Consider `N[C@H]1C[C@@H](C(=O)O)CC1=C(C(F)(F)F)C(F)(F)F`, for which the inhibition result (in assay [6]; in the assay filed under Homo sapiens) was “inactive” throughout. The inhibition entry in the assay on Hep 3B2 [7], with Mus musculus [10], in the assay with Mus musculus [11] and in the assay with HepG2 [14] was “Active” each time. The Activity in the assay with Mus musculus [8] and in the assay with Mus musculus [9] was 24857 pg/mL each time. In addition, the “fold change (FC)” value is listed as 4.5 in assay [12] and 3.1 in assay [13]. For the same compound, the Ki in assay [15] amounted to 4.2 µM.

On to `NC1C=CC=C(C(=O)O)C1` (stereo not drawn) [GABACULINE], for which the inhibition constant Ki in assay [15] amounted to 2.1 µM.
